{
  "source": "patent US20100152102A1",
  "about": "“USE OF SO[…] ONE OF ITS ANALOGUES FOR PREPARING A […] TO REGULATE THE OVARIAN […] IN NON-[…]” (Preglem S.A., priority 2003, published 2010)",
  "key": {"[1]": {"tested_on": "primordial follicles of ewe ovarian cortex", "assay": "culture of ovarian cortex fragments of adult ewes for 10 days", "type": "cell-based", "conditions": "10 days culture; for start of growth of the primordial follicles: vs control (FIG. 3)", "protocol": "Ovaries of adult ewes are collected immediately after slaughter. The ovaries are placed in an organ transport medium without serum (X-vivo, Bio Whittaker, Walkersville, Md., USA) at 10° C. and transported to the laboratory. Approximately 1 h after removal, the cortex is isolated from the medulla then fractionated into slices of 2 mm thickness (1 cm^2, average weight of 212 mg) after rinsing in new X-vivo. The cortex fragments are cultured in an oven under 5% oxygen for 10 days in well plates in the presence of DMEM. The medium is changed every 2 days.\nThe procedure used is the same as for Example 1, except that the somatostatin is replaced with one of its agonist analogues, namely the synthetic peptide of formula c[Tic-Tyr-DTrp-Lys-Abu-Phe] (hereafter AG1 peptide).\nThe procedure used is the same as for Example 1, except that the somatostatin is replaced by one of its antagonist analogues, namely the synthetic peptide of formula Cpa-c(DCys-3-Pal-DTrp-NMeLys-Thr-Cys)-2-Nal-NH2 (hereafter ANT1 peptide)."}, "antral follicles": {"tested_on": "antral follicles", "assay": "envisaged case: patient with polycystic ovary syndrome treated with lanreotide acetate", "type": "in vivo, women", "conditions": "120 mg/month, 4th month of treatment"}},
  "note": "[ ]: non-standard residue; d: D form. Tic = O=C(O)[C@@H]1Cc2ccccc2CN1; Abu = CC[C@H](N)C(=O)O",
  "data": [
    {"molecule": "Cpa-c(DCys-3-Pal-DTrp-NMeLys-Thr-Cys)-2-Nal-NH2 [ANT1 peptide]", "values": [
      {"measurement": "start of growth of the primordial follicles", "setting": "[1]; ANT1 peptide 10^−6M, FIG. 5", "value": "accentuates"}
    ]},
    {"molecule": "CC(C)[C@@H]1NC(=O)[C@H](CCCCN)NC(=O)[C@@H](Cc2c[nH]c3ccccc23)NC(=O)[C@H](Cc2ccc(O)cc2)NC(=O)[C@@H](NC(=O)[C@H](N)Cc2ccc3ccccc3c2)CSSC[C@@H](C(=O)N[C@H](C(N)=O)[C@@H](C)O)NC1=O", "note": "[lanreotide acetate]", "values": [
      {"measurement": "ultrasound of the ovaries: ovarian volume and number of antral follicles", "setting": "antral follicles", "value": "reduction in ovarian volume and in the number of antral follicles"}
    ]},
    {"molecule": "cyclo([Tic]Y[dW]K[Abu]F) [AG1 peptide]", "values": [
      {"measurement": "number of primary follicles", "setting": "[1]; AG1 peptide 10^−9M, FIG. 4", "value": "absence of increase"},
      {"measurement": "number of primordial follicles", "setting": "[1]; AG1 peptide 10^−9M, FIG. 4", "value": "maintenance over time"},
      {"measurement": "start of growth of the primordial follicles", "setting": "[1]; AG1 peptide 10^−9M, FIG. 4", "value": "very significantly inhibits"}
    ]}
  ]
}
